Numbered stars: 1 amine (or outer) side, 2 acyl side, 3 side chain; on linkers, the order of the positions; unused ones are H or OH. Bridge positions count the residues as written; N and C are the ends. Square brackets hold non-standard residues; d marks the D form. Peptide text beside a SMILES is read from it. I, II: the chains in the order shown. Actinocin(9to1) = Cc1c2oc3c(C)ccc(C(=O)[*:1])c3nc-2c(C(=O)[*:2])c(N)c1=O; NMeV = CN[C@H](C(=O)O)C(C)C; Sar = CNCC(=O)O
Assays:
ApCREB-2 mRNA = assay: Steady state level of ApCREB-2 mRNA after exposure to agents; set-up: species or system Aplysia; details: following exposure to the agent
Experimental: RNA was isolated from cultures of approximately 200 Aplysia sensory neurons that had been exposed to none, one, or five pulses of 5-HT (10 μM) as indicated. As a control, one half of the RNA was processed omitting reverse transcriptase from the reaction (—RT).
(FIG. 3B) Northern blot analysis of RNA isolated from CNS of Aplysia exposed to 5-HT in vivo. CNSs were dissected from anesthetized animals after exposing them in vivo to 5-HT (50 μM) for the time indicated above each lane. Eight μg of total RNA from each timepoint was separated in a 1% agarose gel, blotted and consecutively hybridized with probes specific for ApCREB-2, ApCREB-1, ApC/EBP, and ribosomal protein S4 transcripts.
Cultures of approximately 200 Aplysia sensory neurons, established by the dissociation of the pleural sensory cluster in a single dish, were exposed to 10 μM 5-HT for 5 min once or five times separated by 20 min. After washing with ASW, cells were lysed by 100 μl of the guanidium thiocyanate solution and the RNA was isolated. For RT-PCR, the isolated RNA was treated with RNAse free DNAse (Boehringer), reextracted as above and processed using RT-PCR kit (Boehringer). The sequence of the primers used were […]

[1] = system: Aplysia sensory-motor neuron cocultures; assay: Number of fluorescent sensory neuron varicosities contacting the motor neuron; type: cell-based; details: 24 hr after one pulse of 5-HT; antiserum injected 1 hr before training
Experimental: Individual sensory neuron were cocultivated with a single motor cell. Glass micropipettes were filled with a 6% sterile-filtered solution of the fluorescent dye 5(6)-carboxyfluorescein (chromatographically purified; Molecular Probes) in 0.44 M KOH (pH 7.0, resistance 50-90 M. The dye was injected into the sensory neurons immediately after measuring the initial EPSP amplitude by 0.4–0.6 nA hyperpolarizing current pulses (500 ms duration at 1 Hz) for 4–6 min, phase contrast and fluorescence images of the same view areas were taken both before and 24 hr after treatment as previously described (Glanzman et al., 1990; Bailey et al., 1992).
Varicosities were identified according to criteria previously established for sensory neurons in vivo (Bailey et al., 1979; Bailey and Chen, 1983, 1988), and in vitro (Glanzman et al., 1990; Bailey et al., 1992) and included all slightly elongated spheres of approximately 2–3 μm or more in diameter.

[2] = system: Aplysia sensory-motor neuron cocultures; assay: Short- and long-term synaptic facilitation (EPSP amplitude in motor neuron L7) in sensory-motor neuron cocultures; type: cell-based
Experimental: Aplysia sensory neurons from the pleural ganglia of adult animals (80–100 g) were cocultured with the motor neuron L7 from juvenile animals (0.5–4 g). After 4–5 days in culture, the strength of the synaptic connections between the sensory and motor cell was measured electrophysiologically, as previously described (Montarolo et al. 1986, Alberini et al., 1994). The motor neuron was impaled with a glass microelectrode filled with 2.5M KCl (10 MΩ (resistance) and its membrane potential was held at 30 mV below its resting value. The EPSP was evoked by extracellular stimulation of the sensory neuron and the data were stored on a 4 channel tape recorder.
Two protocols were used to induce synaptic facilitation in Aplysia cocultures. In the first, after testing the initial EPSP amplitude, 10 μM 5-HT was applied for 5 min (single pulse). […] The amount of facilitation was calculated as the percentage change in EPSP amplitude recorded before and at the different time points after the single 5-HT application. In the other group of experiments, long-term facilitation was evoked by five exposures to 10 μM 5-HT for 5 min each, at 20 min intervals (5 pulses). The facilitation was calculated as the percentage change in EPSP amplitude 24 hr after the five pulses of 5-HT. The antisera, adjusted to the osmolarity of Aplysia neurons (Alberini et al., 1994), were pressure injected into the sensory neurons 1 hr before 5-HT treatment. Where indicated, anisomycin (10 μM) or actinomycin D (50 μg/ml) was added to the cocultures 1 hr before the 5-HT pulse and was present continuously during the 5-HT treatment. All data are presented as mean percentage change ±SEM in the EPSP amplitude measured after treatment, as compared with its initial pretreatment amplitude. A one way analysis of variance and Newman Keuls multiple range test were used to determine the significance of the EPSP changes.

ATF4 = assay: Amount of ATF4 during neuronal differentiation of PC12 cells; type: cell-based, rat; details: PC12 cells exposed during differentiation
From the text: The above may be tested in a cellular model of neuronal differentiation, specifically the rat pheochromocytoma cells PC12. The cell line is widely used as a model for neuronal differentiation and also for apoptosis, which is programmed neuronal cell death. PC12 cells are undifferentiated in culture and can be differentiated in vitro by exposing them to nerve growth factor (NGF) and cAMP analogs. Withdrawal of these compounds from the cell culture conditions leads to programmed cell death.
It has been investigated whether ATF4 plays a role in the neuronal differentiation of PC12 cells. […] In addition, overexpression of ATF4 in PC12 cells by transfecting expression constructs with constitutive CMV promoter and ATF4 cDNA prevents the PC12 cells from undergoing neuronal differentiation. […] It is important to also study the role of ATF4 in apoptosis. Since both differentiation and cell death in PC12 cell culture involve similar signal transduction pathways, it is reasonable that ATF4 may be involved in this process as well.

[3] = system: CRE-mediated transcription (5xCRE-VIP-lacZ reporter); assay: 5xCRE-VIP-lacZ reporter, transient cotransfection of F9 cells; type: cell-based, mouse
Experimental: (FIG. 5B) Transient transfections of F9 cells using a 5xCRE-VIP-lacZ reporter plasmid. The indicated expression constructs were cotransfected with 5xCRE-VIP-lacZ reporter as in (A), except that relative (-galactosidase activity was calculated relative to 5xCRE-VIP-lacZ reporter and normalized to the luciferase activity of cotransfected pRSV-luc. ApCREB-2 and ApCREB-1 are activators of 5xCRE-VIP-lacZ reporter, but become mutual repressors when coexpressed.
(§1) Undifferentiated mouse F9 cells were transfected using Lipofectamine (BRL). The β-galactosidase and luciferase activities were quantitated by chemiluminescence (Galacton Plus, Tropix, and a Luciferase assay kit, Promega) in a Turner 20e luminometer.

[4] = system: CRE-mediated transcription (pGL3-CRE reporter); assay: pGL3-CRE luciferase reporter, transient cotransfection of F9 cells; type: cell-based, mouse
Experimental: (FIG. 5A) Mouse F9 cells were transiently cotransfected with 1 μg of pGL3-CRE reporter plasmid along with 1 μg of each of the indicated expression plasmids: ApCREB-2=pRcRSV-ApCREB-2, ApCREB-1=pRcRSV-ApCREB-1, PKA=pRcRSV-PKA. All transfections were adjusted to 4 μg total DNA with pRcRSV vector DNA.
as §1

UASg-lacZ gene = assay: GAL4 DNA binding domain activation assay in yeast; type: cell-based, S. cerevisiae; details: fused to the GAL4 DNA binding domain, reporter UASg-lacZ
Experimental: The Aplysia CNS cDNA library was synthesized in pGAD10 using random hexamers and the BRL cDNA synthesis kit. Two libraries constructed from size fractionated cDNAs with average inserts >2 kb (5×10^6 independent clones each) were used in the two-hybrid screening as described previously (Fields and Song., 1989, Durfee et al., 1993, Ausubel et al., 1994). The transcriptional activation properties of ApCREB-2 and its interaction with other proteins in the two-hybrid system was analyzed using the full length ApCREB-2 and its deletion mutants subcloned in pAS1 and pACT2 vectors. The transcriptional activity of ApCREB-2/GAL4 DNA binding domain fusions was determined as decribed (Ma and Ptashne, 1987; Durfee et al., 1993). To analyze the protein interactions, ApCREB-2, ApC/EBP, rat CREB, c-fos and deletion mutants of these proteins in pAS1 and pACT2 were cotransformed into S. cerevisiae Y190, and the expressed β-galactosidase quantified as above.

[5] = 2 hr after one pulse of 5-HT paired with ApCREB-2 antiserum injection, inhibitor present during 5-HT
[6] = 24 hr after one pulse of 5-HT paired with ApCREB-2 antiserum injection, inhibitor present during 5-HT
[7] = expression plasmid alone, with PKA
[8] = expression plasmid alone, without PKA

NCCc1c[nH]c2ccc(O)cc12 [5-HT, serotonin]
level of ApCREB-2 mRNA (ApCREB-2 mRNA): not affected | percent change in the number of sensory neuron varicosities [1]: −10% | percent change in EPSP amplitude ([2]; 10 min after one pulse of 5-HT): 13.6% | percent change in EPSP amplitude ([2]; 30 min after one pulse of 5-HT, sera injected 1 hr before): 2.83% | percent change in EPSP amplitude ([2]; 2 hr after one pulse of 5-HT, sera injected 1 hr before): −1% | facilitation of the synaptic potential ([2]; massed training: 25 minutes of continuous exposure to 5-HT): +39% | duration of short-term facilitation ([2]; single pulse of 5-HT, no injection): about 10 min

CNc1ccc2oc(C[C@H]3O[C@@]4(CC[C@H]3C)O[C@H]([C@H](C)C(=O)c3ccc[nH]3)[C@H](C)C[C@H]4C)nc2c1C(=O)O [A23187]
level of ApCREB-2 mRNA (ApCREB-2 mRNA): does not change

CC(C)Cn1c(=O)n(C)c(=O)c2[nH]cnc21 [IBMX]
level of ApCREB-2 mRNA (ApCREB-2 mRNA): does not change

Nc1ncnc2c1ncn2[C@@H]1O[C@@H]2CO[P@@](O)(=S)O[C@H]2[C@H]1O [Rp-cAMPS]
level of ApCREB-2 mRNA (ApCREB-2 mRNA): does not change

Nc1ncnc2c1ncn2[C@@H]1O[C@@H]2COP(O)(=S)O[C@H]2[C@H]1O (some centres unmarked) [Sp-cAMPS]
level of ApCREB-2 mRNA (ApCREB-2 mRNA): does not change

Cc1c2oc3c(C)ccc(C(=O)N[C@@H]4C(=O)N[C@H](C(C)C)C(=O)N5CCC[C@H]5C(=O)N(C)CC(=O)N(C)[C@@H](C(C)C)C(=O)O[C@@H]4C)c3nc-2c(C(=O)N[C@@H]2C(=O)N[C@H](C(C)C)C(=O)N3CCC[C@H]3C(=O)N(C)CC(=O)N(C)[C@@H](C(C)C)C(=O)O[C@@H]2C)c(N)c1=O [actinomycin D] (I: T[dV]P[Sar][NMeV] / II: T[dV]P[Sar][NMeV]; ester I:1-I:C, II:1-II:C; linker I:N-II:N via Actinocin(9to1))
percent change in EPSP amplitude [2, 5]: +10.12% | percent change in EPSP amplitude [2, 6]: 7.87%

COc1ccc(C[C@H]2NC[C@H](O)[C@H]2OC(C)=O)cc1 [anisomycin]
level of ApCREB-2 mRNA (ApCREB-2 mRNA): does not change | percent change in EPSP amplitude [2, 5]: +19.17% | percent change in EPSP amplitude [2, 6]: +3.67%

C=C1[C@@H](O)[C@@H]2O[C@]3(CC[C@H](/C=C/[C@@H](C)[C@@H]4CC(C)=C[C@@]5(O[C@H](C[C@@](C)(O)C(=O)O)CC[C@H]5O)O4)O3)CC[C@H]2O[C@@H]1[C@@H](O)C[C@H](C)[C@H]1O[C@@]2(CCCCO2)CC[C@H]1C [okadaic acid]
level of ApCREB-2 mRNA (ApCREB-2 mRNA): does not change

NGF: nerve growth factor
amount of ATF4 (ATF4): dramatically reduced

rat CREB-1: wild type rat CREB expressed from pRcRSV-CREB341
relative activation [3, 7]: 68.82±7.3 | relative activation [3, 8]: 7.65±0.65

B1: ApCREB-2: Aplysia bZIP transcription factor, 378 amino acids (SEQ ID NO 1), expressed from pRcRSV-ApCREB-2 (protein)
chain: MELDLWSEDFQLAREWGLEMPVVQTDGQFGDLKSTSRHGGDESLSLQPQGATLKLEPFEEDVLGAEWMESSDLGSFLDALGDNHERLHPFESNLLEFTSLITPDDSTVSKDILSSTLQFPTQPVNIPLYASHGAEDFSAETEFENHLSPPDSPEQVAPVINLEPVELTASHMTVISPDGLLGGMELASESLTFTELDFVNFNDSAVGSIGGAEELLGSPLSVDDVESTISFSGPSSPETSQSSIIESSPELYKVISTSSIDASKRFSPYSRSSKSKQSVKTSDAKAPRKTRTPAQPVPEHVIMEHLDKKDRKKLQNKNAAIRYRMKKKGEAQGIKGEEQELEELNTKLKTKVDDLQREIKYMKNLMEDVCKAKGIQLKM
relative activation ([4]; cotransfected with ApCREB-1, absence of PKA catalytic subunit): 0.96±0.15 | relative activation ([4]; cotransfected with ApCREB-1, presence of PKA catalytic subunit): 1.64±0.20 | relative activation ([3]; cotransfected with ApCREB-1, absence of PKA): 1.84±0.25 | relative activation ([3]; cotransfected with ApCREB-1, presence of PKA): 4.12±0.53 | relative activation ([3]; cotransfected with rat CREB-1, with PKA): 5.15±0.62 | relative activation ([3]; cotransfected with rat CREB-1, without PKA): 2.27±0.3 | relative activation [3, 7]: 43.12±5.1 | relative activation [3, 8]: 2.46±0.2 | relative activity as compared to wild type GAL4 (UASg-lacZ gene): 82%
